Reference: patent US20100029577A1, “Chiral separation, characterization and biological action of optically active isomers of digoxin” (priority 2008, published 2010)

Columns and labels:
[1] = tested on: gram-negative and gram-positive bacteria; settings: against both gram-negative and gram-positive bacteria; cited from earlier work
[2] = tested on: AV node conduction and cardiac contractibility; assay: Effect on PR interval (AV node conduction) and cardiac contractibility in anesthetized guinea pig, continuous IV infusion; format: in vivo; settings: infused at 6 μg/kg/min continuously IV
Description: The guinea pig or rat is anesthetized with pentobarbital at 40 mg/kg IP, then-connected to an EKG recorder. The animal is then placed on a small animal respirator. Aseptic surgical instruments are soaked in ethanol and then flamed. An incision is made in the chest wall to open the chest. A Walton Brody stain gauge arch is sutured to the right ventricle to measure contractile changes. The refractoriness of the AV node is determined by measuring the PR-interval on the surface EKG. Graphs can be created from the data displaying the dose related change in the PR interval to the dose related contractile augmentation. Digoxin or chiral isolates are infused through the jugular vein at concentrations (from 0.1 μM and then to 10 μM) at a constant rate by infusion pump, to determine the differential effects on the AV node and cardiac contractibility. The infusions are continued to a 50% level augmentation in contractibility or the development of ventricular tachycardia. To maintain a consistent level of anesthesia, pentobarbital 20 mg/kg IP or 10 mg/kg IV for more immediate action at 30-minute intervals may be administered.
The effect of digoxin and one of the two chiral isomers was evaluated in the guinea pig. Guinea pigs were anesthetized with pentobarbital. […] An EKG was continuously recorded. Conduction through the AV node was determined by measuring the PR interval on the surface EKG. […]

serum protein [3] = assay: Digitoxin serum protein binding by equilibrium dialysis; format: in vitro ADME, patients
Description: Digitoxin protein binding was dependent on albumin content. […] Chamber equilibrium dialysis gave similar results. […] (mean, 96.7%) and at 37° C. (mean, 96.9%). Digoxin isolates will be used under similar conditions.

serum protein [4] = assay: Free fraction of digitoxin by centrifugation; format: in vitro ADME
Description: Free fraction of digitoxin increased with centrifugation time from 18% at 10 minutes to 37% at 80 minutes (500 g) without reaching plateau levels.

[5] = tested on: digitoxin serum protein binding; assay: In vitro drug studies: ability to induce changes in digitoxin serum protein binding; settings: procainamide 5 mg/ml, phenytoin 50 mg/ml, heparin 5 IU/ml, rifampicillin 4.5 μg/ml
Description: Digoxin isolates will be used under similar conditions.
The ability to induce changes in digitoxin serum protein binding was tested for the following drugs: procainamide (5 mg/ml), phenytoin (50 mg/ml), heparin (5 IU/ml), and rifampicillin (4.5 μg/ml). […] Identical procedures will be used for digoxin isolates.

CC1COc2c(N3CCN(C)CC3)c(F)cc3c(=O)c(C(=O)O)cn1c23 (single isomer, unassigned; (-)) [(−)-Ofloxacin]
times more active as the racemate [1]: 8-128 times

CC1O[C@@H](O[C@H]2C(O)C[C@H](O[C@H]3C(O)C[C@H](OC4CC[C@@]5(C)[C@H](CC[C@@H]6[C@@H]5C[C@@H](O)[C@]5(C)[C@@H](C7=CC(=O)OC7)CC[C@]65O)C4)OC3C)OC2C)CC(O)[C@@H]1O (stereo partly shown) [Digoxin]
change in PR interval on the surface EKG [2]: progressive increase | change in cardiac contractibility as measured by the strain-gauge arch [2]: increase

C[C@H]1O[C@@H](O[C@H]2[C@@H](O)C[C@H](O[C@H]3[C@@H](O)C[C@H](O[C@H]4CC[C@@]5(C)[C@H](CC[C@@H]6[C@@H]5CC[C@]5(C)[C@@H](C7=CC(=O)OC7)CC[C@]65O)C4)O[C@@H]3C)O[C@@H]2C)C[C@H](O)[C@@H]1O [digitoxin]
digitoxin binding (mean) (serum protein [3]; sera from 9 patients dialyzed at 20° C.): 96.7% | digitoxin binding (mean) (serum protein [3]; sera from 9 patients dialyzed at 37° C.): 96.9% | free fraction (serum protein [4]; centrifugation 10 minutes, 500 g): 18% | free fraction (serum protein [4]; centrifugation 60 minutes, 135 g): 5.9% | free fraction (serum protein [4]; centrifugation 60 minutes, 560 g): 15.7% | free fraction (serum protein [4]; centrifugation 80 minutes, 500 g): 37%

O=C1NC(=O)C(c2ccccc2)(c2ccccc2)N1 [phenytoin]
changes in the serum protein binding of digitoxin [5]: None of these induced significant changes

CCN(CC)CCNC(=O)c1ccc(N)cc1 [procainamide]
changes in the serum protein binding of digitoxin [5]: None of these induced significant changes

heparin
changes in the serum protein binding of digitoxin [5]: None of these induced significant changes

rifampicillin
changes in the serum protein binding of digitoxin [5]: None of these induced significant changes
